Measured values published in publication PMC11990670, “Exploring the Volatility, Phase Transitions, and Solubility Properties of Five Halogenated Benzaldehydes” (Molecules, 2025).
Several values for one entry are separate records, joined by “and”; a condition that tells them apart may be missing. Equal values may be shown once. Marks after values point to notes of the source that are not given here.

Key:
[1] = Vapor pressures of crystalline and liquid phases, static method with capacitance diaphragm gauge; assay type: physicochemical
From the text: A previously described and tested static apparatus was used to measure the vapor pressures of the condensed phases (both crystalline and liquid) of the five compounds studied. This installation employs MKS capacitance diaphragm absolute gauges, operating at self-regulated constant temperatures. Our lab is equipped with three pressure gauges. Gauge I, a Baratron 631A01TBEH (MKS instruments, Andover, MA, USA) (Tgauge = 423 K), measures pressures in the range of 0.5 to 1.3 × 10^2 Pa and operates within a temperature range of 253 to 413 K. Gauge II, the instrument used in this study, is a Baratron 631A11TBFP (MKS instruments, Andover, MA, USA) (Tgauge = 473 K), capable of measuring pressures from 0.5 to 1.3 × 10^3 Pa within a temperature range of 253 to 433 K and gauge III, a Baratron 631D02T8FP (MKS instruments, Andover, MA, USA) (Tgauge = 473 K), designed to measure pressures between 0.5 Pa and 2.6 × 10^2 Pa, also within a temperature range of 253 to 433 K. The temperatures of the samples were measured using a Pt100 platinum resistance thermometer, calibrated by comparison with a standard platinum resistance thermometer (SPRT: Tinsley Precision Instruments Ltd, London, England). To prevent vapor condensation, the tubing connecting the cell containing the condensed sample to the pressure gauge is maintained at a temperature higher than that of the sample but lower than that of the gauge. The uncertainty in temperature measurements is estimated to be u(T/K) = ±0.01, and the expanded uncertainties (0.95 confidence level, k = 2) in pressure measurements are given by the expression U(p/Pa) = 0.1 + 0.0050 (p/Pa) for the gauge used. Samples were thoroughly degassed before starting the vapor pressure measurements, ensuring consistent readings at specific temperatures and eliminating any residual volatile substances, including water.

[2] = pH of the saturated aqueous solutions; assay type: physicochemical; conditions: saturated aqueous solution of the solubility experiment
Method: The concentration was measured by absorbances at 260 nm for 4-chlorobenzaldehyde, 263 nm for 4-bromobenzaldehyde and 2,4-dichlorobenzaldehyde, 297 nm for 2,6-dichlorobenzaldehyde, and 306 nm for 2,3-dichlorobenzaldehyde, using a Cary-60 UV–vis (Agilent) spectrophotometer. X-ray diffraction (XRD) and differential scanning calorimetry of residual solids were used to identify the eventual phase transformations. The purified samples of each compound studied were used for all experimental determinations, including the solubility measurements. After reaching the equilibrium, the residual solid was dried and analyzed using both DSC and XRD. The melting properties obtained from DSC were compared with those of the original purified sample, following the same procedure for the XRD analysis. […] As an example, the supporting information includes two thermograms and two XRD patterns for 2,4-dichlorobenzaldehyde (Figures S1 and S2). […] Equation (4) was derived from Equation (5), which is widely applicable to the solubility of solids.(4) ΔhydrGm°/kJ·mol^−1=9.17−5.71·log10(Scr/mol·m^−3)−ΔcrgGm°/kJ·mol^−1 (5) S=p^°/RTexpΔcrgGm°+ΔhydrGm°/−RT
An excess amount of each compound was added to a known volume of water in triplicate. […] After stirring, the solid phase was allowed to settle for 2 h. The pH of the saturated solutions was measured using a Mettler Toledo (Greifensee, Switzerland) FiveEasy F20 pH Meter calibrated with standard aqueous solutions (pH 7.00 and 4.01 or 10.1). Those solutions were then filtered through a 0.22 μm syringe hydrophilic filter (13 mm, PTFE, Labfil, Zhejiang, China) and diluted to the required concentration. The concentration of the compounds, expressed in molarity, was measured by absorbances using a Cary-60 UV–vis spectrophotometer (Agilent Technologies, Santa Clara, CA, USA) at 298.15 K (single cell Peltier accessory, ±0.15 K). The results reported in Table 6 are averaged from at least three replicates. Calibration was performed using solutions of known concentrations of each substance in water. These solutions were prepared by adding a precise mass of the substance and a specific volume of the solvent to a flask, then mixing until the substance was fully dissolved. The absorbance of these solutions was measured, and calibration curves were created.

## O=Cc1ccc(Cl)cc1 [4-Chlorobenzaldehyde]
[1]; crystalline phase, T = 267.45 K
  vapor pressure p: 0.57 Pa
[1]; crystalline phase, T = 269.33 K
  vapor pressure p: 0.72 Pa
[1]; crystalline phase, T = 271.42 K
  vapor pressure p: 0.93 Pa
[1]; crystalline phase, T = 273.29 K
  vapor pressure p: 1.15 Pa
[1]; crystalline phase, T = 275.39 K
  vapor pressure p: 1.48 Pa
[1]; crystalline phase, T = 277.25 K
  vapor pressure p: 1.84 Pa
[1]; crystalline phase, T = 279.32 K
  vapor pressure p: 2.33 Pa
[1]; crystalline phase, T = 281.20 K
  vapor pressure p: 2.90 Pa
[1]; crystalline phase, T = 283.26 K
  vapor pressure p: 3.60 Pa
[1]; crystalline phase, T = 285.16 K
  vapor pressure p: 4.49 Pa
[1]; crystalline phase, T = 287.22 K
  vapor pressure p: 5.65 Pa
[1]; crystalline phase, T = 289.23 K
  vapor pressure p: 6.93 Pa
[1]; crystalline phase, T = 291.18 K
  vapor pressure p: 8.49 Pa
[1]; crystalline phase, T = 293.07 K
  vapor pressure p: 10.45 Pa
[1]; crystalline phase, T = 295.14 K
  vapor pressure p: 12.75 Pa
[1]; crystalline phase, T = 297.14 K
  vapor pressure p: 15.67 Pa
[1]; crystalline phase, T = 299.12 K
  vapor pressure p: 19.07 Pa
[1]; crystalline phase, T = 300.99 K
  vapor pressure p: 23.01 Pa
[1]; crystalline phase, T = 303.05 K
  vapor pressure p: 28.05 Pa
[1]; crystalline phase, T = 305.04 K
  vapor pressure p: 34.26 Pa
[1]; crystalline phase, T = 306.98 K
  vapor pressure p: 40.71 Pa
[1]; crystalline phase, T = 309.01 K
  vapor pressure p: 49.06 Pa
[1]; crystalline phase, T = 310.96 K
  vapor pressure p: 58.06 Pa
[1]; crystalline phase, T = 312.92 K
  vapor pressure p: 69.28 Pa
[1]; crystalline phase, T = 314.91 K
  vapor pressure p: 82.74 Pa
[1]; liquid phase, T = 319.87 K
  vapor pressure p: 125.4 Pa
[1]; liquid phase, T = 321.85 K
  vapor pressure p: 143.8 Pa
[1]; liquid phase, T = 323.75 K
  vapor pressure p: 162.2 Pa
[1]; liquid phase, T = 325.71 K
  vapor pressure p: 183.0 Pa
[1]; liquid phase, T = 327.66 K
  vapor pressure p: 206.8 Pa
[1]; liquid phase, T = 329.70 K
  vapor pressure p: 235.5 Pa
[1]; liquid phase, T = 331.69 K
  vapor pressure p: 264.4 Pa
[1]; liquid phase, T = 333.66 K
  vapor pressure p: 298.2 Pa
[1]; liquid phase, T = 335.64 K
  vapor pressure p: 336.0 Pa
[1]; liquid phase, T = 337.61 K
  vapor pressure p: 375.5 Pa
[1]; liquid phase, T = 339.57 K
  vapor pressure p: 415.3 Pa and 416.0 Pa
[1]; liquid phase, T = 341.56 K
  vapor pressure p: 468.0 Pa
[1]; liquid phase, T = 343.52 K
  vapor pressure p: 520.0 Pa
[1]; liquid phase, T = 345.50 K
  vapor pressure p: 578.0 Pa
[1]; liquid phase, T = 347.47 K
  vapor pressure p: 640.9 Pa
[1]; liquid phase, T = 347.50 K
  vapor pressure p: 641.0 Pa
[1]; liquid phase, T = 349.45 K
  vapor pressure p: 711.8 Pa
[1]; liquid phase, T = 351.43 K
  vapor pressure p: 788.7 Pa
[1]; liquid phase, T = 353.30 K
  vapor pressure p: 864.6 Pa
[1]; liquid phase, T = 355.30 K
  vapor pressure p: 958.0 Pa
[1]; liquid phase, T = 357.33 K
  vapor pressure p: 1058 Pa
[1]; supercooled liquid, T = 305.70 K
  vapor pressure p: 48.17 ^d Pa
[1]; supercooled liquid, T = 307.91 K
  vapor pressure p: 56.22 ^d Pa
[1]; supercooled liquid, T = 309.86 K
  vapor pressure p: 65.09 ^d Pa
[1]; supercooled liquid, T = 311.92 K
  vapor pressure p: 75.03 ^d Pa
[1]; supercooled liquid, T = 313.90 K
  vapor pressure p: 86.06 ^d Pa
[1]; supercooled liquid, T = 315.83 K
  vapor pressure p: 96.33 ^d Pa
[1]; supercooled liquid, T = 317.92 K
  vapor pressure p: 110.0 ^d Pa
[2]
  pH of the saturated solution: 6.61
